{
  "source": "patent US20190071416A1",
  "about": "“COMPOUNDS FOR TREATMENT OF CANCER AND EPIGENETICS” (Agency For Science, Technology and Research, priority 2015, published 2019)",
  "key": {"SMYD3 [1]": {"target": "T1, SMYD3 (Homo sapiens, UniProt Q9H7B4)", "T1 sequence (Q9H7B4 1-428)": "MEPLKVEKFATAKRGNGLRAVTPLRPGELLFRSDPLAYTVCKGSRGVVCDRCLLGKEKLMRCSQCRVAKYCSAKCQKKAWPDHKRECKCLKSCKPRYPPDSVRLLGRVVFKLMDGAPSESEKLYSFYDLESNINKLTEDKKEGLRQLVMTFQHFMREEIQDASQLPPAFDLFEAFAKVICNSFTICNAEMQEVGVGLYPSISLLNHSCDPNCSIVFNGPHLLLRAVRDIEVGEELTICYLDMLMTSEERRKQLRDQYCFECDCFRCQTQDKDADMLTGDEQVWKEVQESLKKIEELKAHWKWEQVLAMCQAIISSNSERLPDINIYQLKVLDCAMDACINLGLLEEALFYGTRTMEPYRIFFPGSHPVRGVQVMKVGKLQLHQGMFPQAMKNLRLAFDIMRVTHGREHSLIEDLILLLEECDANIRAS", "test": "SMYD3 biochemical assay (MTase-Glo, MAP3K2 peptide substrate)", "summary_of_the_method": "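Luminescent readout of SAH production (coupled SAH→ATP conversion, MTase-Glo) after SMYD3 reacted 30 min at room temperature with 1.0 µM SAM and 10 µM MAP3K2 peptide, both final. Non-linear regression gave IC50 values.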"}, "[2]": {"target": "ubiquitin specific protease 7 (Homo sapiens, UniProt Q93009)", "sequence (Q93009 whole entry)": "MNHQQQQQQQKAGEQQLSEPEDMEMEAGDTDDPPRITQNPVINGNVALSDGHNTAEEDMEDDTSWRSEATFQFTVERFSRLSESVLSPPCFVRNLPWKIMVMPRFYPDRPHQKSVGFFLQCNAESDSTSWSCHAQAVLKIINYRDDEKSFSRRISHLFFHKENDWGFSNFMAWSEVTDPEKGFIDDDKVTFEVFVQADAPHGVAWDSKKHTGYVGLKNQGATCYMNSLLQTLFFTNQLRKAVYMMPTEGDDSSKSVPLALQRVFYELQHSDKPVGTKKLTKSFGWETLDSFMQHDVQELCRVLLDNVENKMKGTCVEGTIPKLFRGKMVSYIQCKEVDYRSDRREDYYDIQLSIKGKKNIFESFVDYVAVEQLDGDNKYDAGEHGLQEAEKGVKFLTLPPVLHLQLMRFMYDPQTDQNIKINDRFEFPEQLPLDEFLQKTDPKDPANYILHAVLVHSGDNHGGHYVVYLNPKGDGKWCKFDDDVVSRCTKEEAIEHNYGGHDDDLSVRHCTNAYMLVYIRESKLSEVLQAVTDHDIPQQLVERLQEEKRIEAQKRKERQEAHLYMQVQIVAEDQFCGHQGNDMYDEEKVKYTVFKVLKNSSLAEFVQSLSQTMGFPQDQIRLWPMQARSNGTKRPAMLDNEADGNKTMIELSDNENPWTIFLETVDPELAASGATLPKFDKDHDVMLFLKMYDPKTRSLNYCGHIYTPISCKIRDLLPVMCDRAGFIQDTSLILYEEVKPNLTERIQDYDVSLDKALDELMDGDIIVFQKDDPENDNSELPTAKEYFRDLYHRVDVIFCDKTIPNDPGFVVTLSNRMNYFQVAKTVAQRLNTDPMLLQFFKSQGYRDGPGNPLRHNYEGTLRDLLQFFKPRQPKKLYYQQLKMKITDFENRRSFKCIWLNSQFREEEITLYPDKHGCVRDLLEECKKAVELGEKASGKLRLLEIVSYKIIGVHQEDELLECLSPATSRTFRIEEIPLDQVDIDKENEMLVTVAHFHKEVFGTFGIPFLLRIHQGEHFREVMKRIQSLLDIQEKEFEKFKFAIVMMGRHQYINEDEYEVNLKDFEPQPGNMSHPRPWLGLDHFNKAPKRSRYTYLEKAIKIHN", "conditions": "cited from earlier work"}, "[3]": {"tested_on": "MAP3K2 methylation (me2/me3-Lys 260)", "test": "SMYD3 mediated methylation of MAP3K2 in HEK293 cells (Western blot)", "assay_type": "cell-based, Human", "conditions": "25 μM", "protocol": "(§1) The cells were seeded in 6 well plates. After seeding for 24 h, the cells were treated with either DMSO or 25 μM compound and incubated for 24 hr. The cells were trypsinized and the lysate was extracted with RIPA buffer (Santa Cruz). The total protein concentration of lysate is quantified using the standard Bradford assay (Biorad protein assay, microplate standard assay).\nWestern blot analysis for detecting methylated MAP3K2 was carried out using a customized Anti-me2/me3-Lys 260 MAP3K2 at 1:500 and the total MAP3K2 was detected using Anti-MEKK2 (AB33918) using a 1:10,000 dilution.\nB019 was further tested for its ability to inhibit SMYD3 in cells through its effects on cellular MAP3K2 methylation. This was performed using an antibody against the MAP3K2 (me2/me3), Anti-ME2/ME3-K260-MAP3K2 (1:500) and total MAP3K2, Anti-MEKK2 #ab33918 (1:10,000)."}, "[4]": {"test": "Human liver microsomes stability test", "assay_type": "in vitro ADME"}, "[5]": {"test": "Mouse liver microsomes stability test", "assay_type": "in vitro ADME"}, "SMYD3 [6]": {"target": "T1, SMYD3", "conditions": "assay reported in the publication; cited from earlier work"}, "SMYD3 [7]": {"target": "T1, SMYD3", "test": "Target engagement assay, SMYD3 levels by Western blot in HEK293 cells transfected with Myc-SMYD3", "assay_type": "cell-based", "parameters": "host or cells: HEK293 (ATCC)", "conditions": "compared to B019", "protocol": "The target engagement assay was performed with HEK293 that is engineered to overexpress SMYD3 (HEK293-SMYD3). The plasmid SMYD3 (Myc-DDK-tagged-Human SET and MYND domain containing 3) was purchased from Origene (RC230064) and transfected with lipofectamine 2000 (Invitrogen) into HEK293 (ATCC). The cell line is cultured in Eagle's MEM media supplemented with fetal bovine serum and geneticin (Invitrogen). Presence of over-expressed SMYD3 is confirmed with western blot with antibody against SMYD3 and the MYC tag as well as with RT-PCR with SMYD3 primers.\nas §1\nWestern blot analysis was performed using antibody against SMYD3 in HEK293 cells over-expressing SMYD3 (HEK293-SMYD3) treated with compound at different time points. 15.0 μg of cell lysate was diluted in 2× Laemmli sample buffer (Bio-Rad) and boiled at 100° C. on heat block for 5 min. Lysates were separated using NuPAGE® 4-12% Bis-Tris precast polyacrylamide gels (Lifetech) at 200 V, […] for 40 min. […]"}, "[8]": {"conditions": "Table 4, prior art compounds, read-out: IC50"}},
  "note": "Read-outs that look alike come from different tables or passages of the source.",
  "data": [
    {"smiles": "Cc1cccc(CN2CCC(CNC(=O)c3ccc4c(Cl)c5c(nc4c3)CCCC5)CC2)c1", "note": "[X2, reference compound]", "values": [
      {"measurement": "activity against SMYD3", "setting": "SMYD3 [1]", "result": "not active"},
      {"measurement": "IC50", "setting": "SMYD3 [1]; [8]", "result": 750, "unit": "µM"},
      {"measurement": "activity against ubiquitin specific protease 7", "setting": "[2]", "result": "act against"}
    ]},
    {"smiles": "CN1CCC(N2CCN(C(=O)c3ccc4c(Cl)c5c(nc4c3)CCCC5)CC2)CC1", "note": "[X3, reference compound]", "values": [
      {"measurement": "activity against SMYD3", "setting": "SMYD3 [1]", "result": "not active"},
      {"measurement": "IC50", "setting": "SMYD3 [1]; [8]", "result": 750, "unit": "µM"},
      {"measurement": "activity against ubiquitin specific protease 7", "setting": "[2]", "result": "act against"}
    ]},
    {"smiles": "CCOC(=O)N1CCN(C(=O)c2ccc3c(Cl)c4c(nc3c2)CCCC4)CC1", "note": "[X4, ethyl 4-(9-chloro-5,6,7,8-tetrahydroacridine-3-carbonyl)piperazine-1-carboxylate, reference compound]", "values": [
      {"measurement": "IC50", "setting": "SMYD3 [1]; read-out: active against SMYD3", "result": 6.2, "unit": "µM"},
      {"measurement": "inhibition of methylation of MAP3K2 in cells", "setting": "[3]", "result": "unable to inhibit"},
      {"measurement": "half-life", "setting": "[4]; read-out: half-life, t1/2", "result": 9, "unit": "min"},
      {"measurement": "half-life", "setting": "[5]; read-out: half-life, t1/2", "result": 4, "unit": "min"}
    ]},
    {"smiles": "O=C1Cc2cc(C(=O)N[C@H]3C[C@H]4CC[C@@H](C3)N4S(=O)(=O)CC3CCN(CCCC(F)(F)F)CC3)c(Cl)cc2N1", "note": "[X5]", "values": [
      {"measurement": "active against SMYD3", "setting": "SMYD3 [6]", "result": 3, "unit": "nM"}
    ]},
    {"smiles": "CCOC(=O)N1CCN(C(=O)c2ccc3c(Cl)c4c(nc3c2)CCCC4)CC1", "note": "[ethyl 4-(9-chloro-5,6,7,8-tetrahydroacridine-3-carbonyl)piperazine-1-carboxylate]", "values": [
      {"measurement": "activity against SMYD3", "setting": "SMYD3 [1]", "result": "moderately active"},
      {"measurement": "metabolic stability", "setting": "[4]; high metabolic clearance", "result": "poor"},
      {"measurement": "metabolic stability", "setting": "[5]; high metabolic clearance", "result": "poor"},
      {"measurement": "target engagement", "setting": "SMYD3 [7]", "result": "poor"}
    ]}
  ]
}
